Measured values reported in patent US20250034216A1, “STEREOSELECTIVE COVALENT LIGANDS FOR ONCOGENIC AND IMMUNOLOGICAL PROTEINS” (The Scripps Research Institute, priority 2021, published 2025).

molecular target: T1, CLUH_C333 (Homo sapiens, UniProt O75153); test: IA-DTB cysteine engagement; type: binding; conditions: 22Rv1 cells, 20 μM probe, 1 h, relative to DMSO
T1 construct: endogenous in cells; host or cells: 22Rv1
T1 sequence (O75153 1-1309): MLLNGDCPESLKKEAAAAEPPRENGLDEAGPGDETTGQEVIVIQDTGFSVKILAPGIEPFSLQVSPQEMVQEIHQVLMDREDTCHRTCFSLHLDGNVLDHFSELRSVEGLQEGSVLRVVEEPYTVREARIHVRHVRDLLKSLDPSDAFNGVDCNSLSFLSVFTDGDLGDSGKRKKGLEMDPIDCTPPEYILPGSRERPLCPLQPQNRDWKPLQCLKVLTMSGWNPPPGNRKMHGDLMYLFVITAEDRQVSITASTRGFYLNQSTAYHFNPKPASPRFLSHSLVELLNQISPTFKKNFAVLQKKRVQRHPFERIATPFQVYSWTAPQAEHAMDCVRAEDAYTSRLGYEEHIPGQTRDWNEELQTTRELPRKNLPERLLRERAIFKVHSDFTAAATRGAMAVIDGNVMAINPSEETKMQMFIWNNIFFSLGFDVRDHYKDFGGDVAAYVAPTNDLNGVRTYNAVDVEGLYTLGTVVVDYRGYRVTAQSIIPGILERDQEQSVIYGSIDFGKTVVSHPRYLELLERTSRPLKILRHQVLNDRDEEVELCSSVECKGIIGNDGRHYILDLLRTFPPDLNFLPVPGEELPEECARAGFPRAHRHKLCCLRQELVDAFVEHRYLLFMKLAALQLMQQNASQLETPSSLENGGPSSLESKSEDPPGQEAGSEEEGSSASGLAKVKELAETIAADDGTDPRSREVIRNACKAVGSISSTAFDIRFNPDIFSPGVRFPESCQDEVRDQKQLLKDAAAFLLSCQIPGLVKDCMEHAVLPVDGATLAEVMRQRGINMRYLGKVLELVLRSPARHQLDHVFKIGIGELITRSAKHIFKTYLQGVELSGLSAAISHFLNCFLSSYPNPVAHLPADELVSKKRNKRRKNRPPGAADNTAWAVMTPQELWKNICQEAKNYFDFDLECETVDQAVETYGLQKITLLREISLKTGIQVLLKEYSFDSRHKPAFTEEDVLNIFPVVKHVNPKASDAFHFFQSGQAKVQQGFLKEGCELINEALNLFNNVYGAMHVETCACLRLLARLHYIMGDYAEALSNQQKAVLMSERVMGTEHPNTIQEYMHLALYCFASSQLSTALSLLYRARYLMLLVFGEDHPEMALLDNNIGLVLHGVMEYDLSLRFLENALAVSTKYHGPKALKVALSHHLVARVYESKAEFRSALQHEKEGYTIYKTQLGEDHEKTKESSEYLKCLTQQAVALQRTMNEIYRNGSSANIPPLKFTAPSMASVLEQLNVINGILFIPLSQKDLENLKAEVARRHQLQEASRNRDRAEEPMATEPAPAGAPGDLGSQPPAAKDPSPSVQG
Method in brief: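 Cells were treated in situ with electrophilic probes, then lysed, and the lysates (2 mg/mL protein) were labeled with IA-DTB for 1 h at ambient temperature. After reduction, alkylation and trypsin digestion, labeled peptides were streptavidin-enriched, TMT-labeled and fractionated. Engagement ratios are probe vs DMSO reporter intensities, averaged across replicates.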

Row | Structure (SMILES) | % engagement CLUH_C333
1 | C=CC(=O)N1C[C@@H](c2ccc(Br)cc2)[C@H]1C(=O)Nc1cccc2cccnc12 [MY-1A, (2S,3R)-1-acryloyl-3-(4-bromophenyl)-N-(quinolin-8-yl)azetidine-2-carboxamide] | 81%
2 | C=CC(=O)N1C[C@H](c2ccc(Br)cc2)[C@@H]1C(=O)Nc1cccc2cccnc12 [MY-1B, (2R,3S)-1-acryloyl-3-(4-bromophenyl)-N-(quinolin-8-yl)azetidine-2-carboxamide] | 13%
3 | C=CC(=O)N1C[C@H](c2ccc(Br)cc2)[C@H]1C(=O)Nc1cccc2cccnc12 [MY-3A, (2S,3S)-1-acryloyl-3-(4-bromophenyl)-N-(quinolin-8-yl)azetidine-2-carboxamide] | 0.5%
4 | C=CC(=O)N1C[C@H](c2ccc(Br)cc2)[C@H]1C(=O)Nc1cccc2cccnc12 [MY-3B, (2S,3S)-1-acryloyl-3-(4-bromophenyl)-N-(quinolin-8-yl)azetidine-2-carboxamide] | −4.5%
